Publication PMC5773535, “Plasmodium dihydrofolate reductase is a second enzyme target for the antimalarial action of triclosan” (Scientific Reports, 2018)

Experiments:
[1] = target: T1, human dihydrofolate reductase (HsDHFR) (Homo sapiens, UniProt P00374); test: spectrophotometric DHFR assay at […] nm (NADPH/DHF consumption), purified enzyme; type: biochemical
T1 construct: gene DHFR
T1 sequence (P00374 1-187): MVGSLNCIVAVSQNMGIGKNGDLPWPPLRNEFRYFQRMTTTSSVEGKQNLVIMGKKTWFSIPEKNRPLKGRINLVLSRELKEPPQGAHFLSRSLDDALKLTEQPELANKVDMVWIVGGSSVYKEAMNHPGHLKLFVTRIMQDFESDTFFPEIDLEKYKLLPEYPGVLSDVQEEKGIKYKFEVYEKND

[2] = target: P. vivax dihydrofolate reductase (PvDHFR) (Plasmodium vivax, UniProt O02604); test: as above; type: biochemical
Sequence of P. vivax dihydrofolate reductase (PvDHFR) (O02604 1-240): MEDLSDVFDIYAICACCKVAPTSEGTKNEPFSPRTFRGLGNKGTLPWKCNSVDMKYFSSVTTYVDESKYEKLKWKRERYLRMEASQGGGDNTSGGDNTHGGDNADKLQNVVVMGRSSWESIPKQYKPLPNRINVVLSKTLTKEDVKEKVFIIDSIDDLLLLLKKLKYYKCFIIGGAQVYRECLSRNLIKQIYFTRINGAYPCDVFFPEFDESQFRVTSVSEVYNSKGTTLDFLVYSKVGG

## Oc1cc(Cl)ccc1Oc1ccc(Cl)cc1Cl [triclosan]
[1]
  IC50: 17.2 ± 4.9 µM
[2]
  IC50: 0.775 ± 0.384 µM
